“And” between values parts separate entries of the source, which are not always exact repeats. Identical values can stand only once.
How the values were obtained:
Conditions in all cases: incubation time: 72 h
CAL-51 [1] = assay: normalised viability (% of control), CellTiter-Blue; higher = more viable cells (about 100 = DMSO control)
Procedure, shortened: (§1)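 384-well plates were pre-loaded with compound in 5 µl medium before 20 µl of breast cancer cell suspension was seeded. Following 72 h incubation, 2.5 µl CellTiter-Blue reagent was added for 2 h at 37 °C. Fluorescence was read at 560/590 nm and plates were normalised to vehicle (100) and a positive kill control (0), checked by Z'-factor. Normalised viability is reported at a single listed concentration of the series.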

DU-4475 [2] = assay: as above
Procedure, shortened: as §1

HDQ-P1 [3] = assay: as above
Procedure, shortened: as §1

MDA-MB-453 [4] = assay: as above
Procedure, shortened: as §1

BT-474 = assay: normalised response (% of control), CellTiter-Glo; higher = more viable cells (100 = DMSO, 0 = benzethonium chloride kill control)
Procedure, shortened: (§2)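 Every value is a normalised signal taken at one concentration of a dilution series. Compound was placed in 384-well plates at 5 concentrations in 10-fold steps over a compound-specific 10,000-fold range, and 20 µl of breast cancer cell suspension was seeded onto it. After 72 h, CellTox Green fluorescence (485/520 nm) was measured first and CellTiter-Glo luminescence second, following 10 min at room temperature. Each plate was scaled to 0.1 % DMSO (100) and a positive kill control (0).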

BT-549 = assay: as above
Procedure, shortened: as §2

CAL-120 = assay: as above
Procedure, shortened: as §2

CAL-148 = assay: as above
Procedure, shortened: as §2

CAL-51 [5] = assay: as above
Procedure, shortened: as §2

CAL-85-1 = assay: as above
Procedure, shortened: as §2

DU-4475 [6] = assay: as above
Procedure, shortened: as §2

HCC1143 = assay: as above
Procedure, shortened: as §2

HCC1599 = assay: as above
Procedure, shortened: as §2

HCC1937 = assay: as above
Procedure, shortened: as §2

HDQ-P1 [7] = assay: as above
Procedure, shortened: as §2

Hs578T = assay: as above
Procedure, shortened: as §2

MCF-10A = assay: as above
Procedure, shortened: as §2

MDA-MB-231 = assay: as above
Procedure, shortened: as §2

MDA-MB-436 = assay: as above
Procedure, shortened: as §2

MDA-MB-453 [8] = assay: as above
Procedure, shortened: as §2

MDA-MB-468 = assay: as above
Procedure, shortened: as §2

MFM-223 = assay: as above
Procedure, shortened: as §2

SK-BR-3 = assay: as above
Procedure, shortened: as §2

Structure (SMILES)	normalised viability (CAL-51 [1])	normalised viability (DU-4475 [2])	normalised viability (HDQ-P1 [3])	normalised viability (MDA-MB-453 [4])	normalised response (BT-474) [%]	normalised response (BT-549) [%]	normalised response (CAL-120) [%]	normalised response (CAL-148) [%]	normalised response (CAL-51 [5]) [%]	normalised response (CAL-85-1) [%]	normalised response (DU-4475 [6]) [%]	normalised response (HCC1143) [%]	normalised response (HCC1599) [%]	normalised response (HCC1937) [%]	normalised response (HDQ-P1 [7]) [%]	normalised response (Hs578T) [%]	normalised response (MCF-10A) [%]	normalised response (MDA-MB-231) [%]	normalised response (MDA-MB-436) [%]	normalised response (MDA-MB-453 [8]) [%]	normalised response (MDA-MB-468) [%]	normalised response (MFM-223) [%]	normalised response (SK-BR-3) [%]
Nc1nc(Cl)nc2c1ncn2[C@@H]1O[C@H](CO)[C@@H](O)[C@@H]1F [Clofarabine] (10000 nM)	12.4%	14%	91.7%	41.2%	66.3	27.4	69.8	40.5	17	35.4	49.3	40.3	29.1	84.2	73.7	68.2	56.9	73	21.4	75.3	16.4	92.3	36.8
CCN(CC)CCOc1ccc(C(=C(Cl)c2ccccc2)c2ccccc2)cc1 [Clomifene] (10000 nM)	84.7%	48.2%	38.8%	7.39%	8.15	71.3	90.2	74.4	98.5	44.9	44.1	95.4	4.3	10.1	82.1	26.6	46.1	4.7	87.6	14.7	65	26.5	27.5
C[C@@H]1C[C@H]2[C@@H]3CCC4=CC(=O)C=C[C@]4(C)[C@@]3(F)[C@@H](O)C[C@]2(C)[C@@]1(O)C(=O)CO [Dexamethasone] (10000 nM)	97.9%	104%	125%	75.3%	137	96.7	70.3	98.2	132	124	101	99.6	83.5	98.4	82	105	79.9	149	103	78.7	95.2	94.2	86.9
CC(C)C(=O)Nc1ccc([N+](=O)[O-])c(C(F)(F)F)c1 [Flutamide] (10000 nM)	98.3%	87.4%	124%	91.7%	95.6	94.1	104	101	89.6	90.1	97.7	95	90	92.7	92.4	101	96.7	93.3	98.4	96.1	93.9	90.9	105
COc1cc2c(Oc3ccc(NC(=O)C4(C(=O)Nc5ccc(F)cc5)CC4)cc3F)ccnc2cc1OCCCN1CCOCC1 [Foretinib] (1000 nM)	24.8%	29.4%	45.4%	51.8%	73	75.5	68	48.9	67.3	90.3	80.8	69.2	104	72.5	66.1	76	60.7	60.2	73.3	125	34.1	44.6	98
NC(=O)NO [Hydroxyurea] (100000 nM)	100%	121%	123%	91.5%	97.2	77.4	96.9	102	29	101	102	104	96.4	95	97	104	105	98.5	103	106	102	104	110
O=NN(CCCl)C(=O)NC1CCCCC1 [Lomustine] (10000 nM)	104%	91.5%	111%	47.5%	97.2	104	98.5	97	110	99.9	99.7	96.2	104	99	99.5	103	104	95.9	105	107	101	106	101
O=C(O)CC[C@H]1CC[C@@](c2cc(F)ccc2F)(S(=O)(=O)c2ccc(Cl)cc2)CC1 [MK-0752] (1000 nM)	100%	110%	126%	117%	95.4	93	105	115	126	98.1	102	103	89	95.1	95.5	98.5	95.6	97	105	108	94	100	117
NC(=O)c1cccc2cn(-c3ccc([C@@H]4CCCNC4)cc3)nc12 [MK-4827] (10000 nM)	40.7%	32.7%	94%	63.2%	85.8	83.7	93.2	71.8	65.8	81.8	69.3	87.3	91.4	101	94.3	85.2	101	87.4	68.9	108	45.8	106	73.3
CO[C@H](C(=O)[C@@H](O)[C@@H](C)O)[C@@H]1Cc2cc3cc(O[C@H]4C[C@@H](O[C@@H]5C[C@@H](O)[C@H](O)[C@@H](C)O5)[C@H](O)[C@@H](C)O4)c(C)c(O)c3c(O)c2C(=O)[C@H]1O[C@H]1C[C@@H](O[C@@H]2C[C@@H](O)[C@@H](O[C@@H]3C[C@](C)(O)[C@H](O)[C@@H](C)O3)[C@@H](C)O2)[C@H](O)[C@@H](C)O1 [Plicamycin] (10000 nM)	3.24% and 3.4%	2.44% and 0.15%	22.3% and 16%	6.38% and 4.39%	9.55	1.99	27	6.34	9.56	9.87	1.22	6.57	4.89	21	19.1	8.19	5.35	7.32	22.5	16.1	4.44	29.1	10.1
C[C@]12C=CC(=O)C=C1CC[C@@H]1[C@@H]2C(=O)C[C@@]2(C)[C@H]1CC[C@]2(O)C(=O)CO [Prednisone] (10000 nM)	101%	99.3%	122%	88%	105	94.6	49	109	118	98.6	107	103	102	95.4	98.6	102	113	100	98.2	100	104	97.4	107
CN1CCN(c2nc(C3=C(c4c[nH]c5ccccc45)C(=O)NC3=O)c3ccccc3n2)CC1 [Sotrastaurin] (10000 nM)	108%	77.1%	124%	75.6%	103	97.9	82.7	84.3	92.5	112	76.4	94.2	82.8	118	86.2	108	94.2	107	107	108	78.6	67.4	67.5
CC/C(=C(\c1ccccc1)c1ccc(OCCN(C)C)cc1)c1ccccc1 [Tamoxifen] (10000 nM)	90.2%	108%	78.5%	17.4%	69.3	78.2	90	77.7	71.7	81.6	85.7	95.7	73	51.8	99.1	87.8	74.3	60.8	86.9	23.5	77	58.2	53.4
Cn1nnc2c(C(N)=O)ncn2c1=O [Temozolomide] (10000 nM)	87.8%	116%	31.3%	100%	91.2	100	95.2	95.8	106	99.2	91.1	95.1	108	91.6	95.1	95.7	96.2	91.2	98	97.9	99.1	101	93.9
CC[C@@H]1C(=O)N(C)c2cnc(Nc3ccc(C(=O)N[C@H]4CC[C@H](N5CCN(CC6CC6)CC5)CC4)cc3OC)nc2N1C(C)C [Volasertib] (1000 nM)	7.23%	35.1%	87.8%	30.7%	66.4	29.1	49.1	79.9	26.9	48.6	66.2	41.3	28.3	66.8	64.7	25.4	46.9	73	65.6	62.4	48	51.2	27.2

— the supplement of paper PMC4862054
